Our source for the Stability and Solubility values is patent US20140051877A1, “EICOSAPENTAENOIC ACID (EPA) AS POLYUNSATURATED FREE FATTY ACID IN ITS DIRECTLY COMPRESSIBLE POWDER FORM AND PROCESS OF ISOLATION THEREOF” (priority 2011, published 2014).

SMILES strings stand for the structures.

Data set [1] can be described thus: Stability of EPA powder at room temperature. In kind it is physicochemical. The conditions noted are these: powder form, no antioxidants added.
Data set [2] in a line: Physical characterisation of isolated EPA: solubility. In kind it is physicochemical. The note with it: solvent chloroform; isolated EPA free fatty acid powder. On the procedure:
Take 1 litre of fish oil. Maintain temperature to 40-45° C. To it add 1-2% methanolic or ethanolic or propanolic or butanolic sodium or potassium hydroxide 1 litre and stir for ½ an hour. keep aside, it separates into 2 layers, discard an upper layer which contains lower fatty acids. It further separates in to two layers, discard the upper layer. Then in lower layer add 750 ml of acetone or ethyl/ methyl ketone and stir for ½ an hour and keep aside for 20 mins. It precipitates and form two phase (solid and liquid) filter it and discard the solid layer. In the lower liquid layer, after ½ an hour, settle solid compound. On filtration, the solid compound separates. Wash the solid compound 2-3 times with 400 ml of acetone and Evaporate and recover the solvent with temperature not exceeding 40 degree C. This leads to drying of the precipitated EPA at room temperature to form the crystalline mass. The same is passed through the sieve to obtain a dry, directly compressible, free flowing powder of free fatty acid EPA thereof.
Cool fish oil to 12 degree C. to solidify all fatty acids in waxy form which separates from the fish oil. […] It is washed 2-3 times with equal quantity of acetone and Evaporate and recover the solvent with temperature not exceeding 40 degree C. […]

For the molecule `CC/C=C\C/C=C\C/C=C\C/C=C\C/C=C\CCCC(=O)O` [EPA, Eicosapentaenoic acid], in data set [1], the Stability entry is given as “stable at room temperature”. Also, the Solubility entry in data set [2] is “freely soluble in chloroform”.
